From patent publication US20100222269A1, “IMPROVED DERIVATIVES OF AMYLIN” (priority 2007, published 2010)
pEC50: −log10 of the molar value. Positions of bridges follow the written chain, without caps; N, C: chain ends. Residues, ends and D or L forms follow the SMILES beside them. Groups on a side chain read outwards from the residue. *: point of attachment. C20 diacid = O=C(O)CCCCCCCCCCCCCCCCCCC(=O)*; C18 diacid = O=C(O)CCCCCCCCCCCCCCCCC(=O)*; AEEA = NCCOCCOCC(=O)O

Molecular target: T1, Amylin 3(a) receptor (human calcitonin receptor (CTa) with RAMP-3) (Homo sapiens, UniProt O60896+P30988)
T1 construct: expressed in transfected cells; host or cells: BHK570 (baby hamster kidney) cells, stably transfected, with CRE-luciferase reporter
T1 sequence (O60896 24-148): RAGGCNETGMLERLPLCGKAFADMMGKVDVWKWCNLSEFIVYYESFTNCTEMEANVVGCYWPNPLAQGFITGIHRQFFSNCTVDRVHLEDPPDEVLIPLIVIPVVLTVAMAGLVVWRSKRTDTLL
T1 sequence (P30988 25-474): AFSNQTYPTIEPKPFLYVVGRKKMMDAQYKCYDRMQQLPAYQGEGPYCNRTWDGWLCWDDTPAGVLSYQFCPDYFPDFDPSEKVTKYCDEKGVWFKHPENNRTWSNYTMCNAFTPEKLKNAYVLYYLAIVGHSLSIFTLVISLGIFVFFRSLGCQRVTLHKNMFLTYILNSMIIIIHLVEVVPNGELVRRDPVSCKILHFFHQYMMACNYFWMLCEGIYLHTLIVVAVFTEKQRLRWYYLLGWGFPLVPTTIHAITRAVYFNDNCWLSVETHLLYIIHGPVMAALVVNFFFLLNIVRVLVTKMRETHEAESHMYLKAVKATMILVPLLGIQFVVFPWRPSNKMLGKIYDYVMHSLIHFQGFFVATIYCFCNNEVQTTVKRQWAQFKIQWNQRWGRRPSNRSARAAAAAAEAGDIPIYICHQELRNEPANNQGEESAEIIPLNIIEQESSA
Test: Amylin luciferase assay (CRE-luciferase reporter in BHK Amylin 3(a)//CRE-luc cells)
Format: cell-based
Conditions: BHK570 cells with human calcitonin receptor (CTa), RAMP-3 and CRE-luciferase reporter; 4 hours incubation; read-out: Potency luciferase assay
Description: It has previously been published (Poyner D R et al 2002, Pharmacological Reviews 54(2) 233-246) that activation of Amylin receptors (coexpression of Calcitonin receptor and receptor activity modifying peptides RAMPs) by Amylin leads to an increase in the intracellular concentration of cAMP. Consequently, transcription is activated at promotors containing multiple copies of the cAMP response element (CRE). It is thus possible to measure Amylin activity by use of a CRE luciferase reporter gene introduced into BHK cells also expressing an Amylin receptor.
2. Construction of an Amylin 3(a)/CRE-luc Cell Line
A BHK570 cell line stably transfected with the human calcitonin receptor (CTa) and a CRE-responsive luciferase reportergene. The cell line was further transfected with RAMP-3, using standard methods. This turns the Calcitonin receptor into an Amylin 3(a) receptor. Methotrexate, Neomycin, and Hygromycin are selection markers for luciferase, the Calcitonin receptor, and RAMP-3, respectively.
3. Amylin Luciferase Assay
To perform activity assays, BHK Amylin 3(a)//CRE-luc cells were seeded in white 96 well culture plates at a density of about 20.000 cells/well. The cells were in 100 μl growth medium (DMEM with 10% FBS, 1% Pen/Strep, 1 mM Na-pyruvate, 250 nM Methotrexate, 500 μg/ml Neomycin, and 400 μg/ml Hygromycin). After incubation overnight at 37° C. and 5% CO2, the growth medium was replaced by 50 μl/well assay medium (DMEM (without phenol red), Glumamax™, 10% FBS, and 10 mM Hepes, pH 7,4). Further, 50 μl/well of standard or sample in assay buffer were added. After 4 hours incubation at 37° C. and 5% CO2, the assay medium with standard or sample were removed and replaced by 100 μl/well PBS. Further, 100 μl/well LucLite™ was added. The plates were sealed and incubated at room temperature for 30 minutes. Finally, luminescence was measured on a TopCounter (Packard) in SPC (single photon counting) mode.

pEC50	Structure (SMILES)
10.40	CC[C@H](C)[C@H](NC(=O)[C@H](CCCCNC(=O)COCCOCCNC(=O)COCCOCCNC(=O)CCCCCCCCCCCCCCCCC(=O)O)NC(=O)CNC(=O)[C@H](Cc1ccccc1)NC(=O)[C@H](CC(N)=O)NC(=O)[C@H](CC(N)=O)NC(=O)[C@H](CO)NC(=O)[C@H](CO)NC(=O)[C@H](CCCNC(=N)N)NC(=O)[C@@H](NC(=O)[C@H](CC(C)C)NC(=O)[C@H](Cc1ccccc1)NC(=O)[C@H](CC(N)=O)NC(=O)[C@H](C)NC(=O)[C@H](CC(C)C)NC(=O)[C@H](CCCNC(=N)N)NC(=O)[C@H](CCC(N)=O)NC(=O)[C@@H](NC(=O)[C@H](C)NC(=O)[C@@H]1CSSC[C@H](NC(=O)[C@@H](N)CCCCN)C(=O)N[C@@H](CC(N)=O)C(=O)N[C@@H]([C@@H](C)O)C(=O)N[C@@H](C)C(=O)N[C@@H]([C@@H](C)O)C(=O)N1)[C@@H](C)O)C(C)C)C(=O)N[C@@H](CC(C)C)C(=O)N1CCC[C@H]1C(=O)N1CCC[C@H]1C(=O)N[C@H](C(=O)N[C@@H](CC(N)=O)C(=O)N[C@H](C(=O)NCC(=O)N[C@@H](CO)C(=O)N[C@@H](CC(N)=O)C(=O)N[C@H](C(=O)N[C@@H](Cc1ccc(O)cc1)C(N)=O)[C@@H](C)O)C(C)C)[C@@H](C)O [Example 9, N-epsilon25-(2-{2-[2-(2-{2-[2-(17-carboxyheptadecanoylamino)ethoxy]ethoxy}acetylamino)ethoxy]ethoxy}acetyl)-[Arg18,Lys25]-pramlintide (1-37)] (H-KCNTATCATQRLANFLVRSSNNFGK([AEEA-AEEA-C18 diacid])ILPPTNVGSNTY-NH2; disulfide 2-7)
10.22	CC[C@H](C)[C@H](NC(=O)[C@H](CCCCNC(=O)COCCOCCNC(=O)COCCOCCNC(=O)CCCCCCCCCCCCCCCCCCC(=O)O)NC(=O)CNC(=O)[C@H](Cc1ccccc1)NC(=O)[C@H](CC(N)=O)NC(=O)[C@H](CC(N)=O)NC(=O)[C@H](CO)NC(=O)[C@H](CO)NC(=O)[C@H](Cc1c[nH]cn1)NC(=O)[C@@H](NC(=O)[C@H](CC(C)C)NC(=O)[C@H](Cc1ccccc1)NC(=O)[C@H](CC(N)=O)NC(=O)[C@H](C)NC(=O)[C@H](CC(C)C)NC(=O)[C@H](CCCNC(=N)N)NC(=O)[C@H](CCC(N)=O)NC(=O)[C@@H](NC(=O)[C@H](C)NC(=O)[C@@H]1CSSC[C@H](NC(=O)[C@@H](N)CCCCN)C(=O)N[C@@H](CC(N)=O)C(=O)N[C@@H]([C@@H](C)O)C(=O)N[C@@H](C)C(=O)N[C@@H]([C@@H](C)O)C(=O)N1)[C@@H](C)O)C(C)C)C(=O)N[C@@H](CC(C)C)C(=O)N1CCC[C@H]1C(=O)N1CCC[C@H]1C(=O)N[C@H](C(=O)N[C@@H](CC(N)=O)C(=O)N[C@H](C(=O)NCC(=O)N[C@@H](CO)C(=O)N[C@@H](CC(N)=O)C(=O)N[C@H](C(=O)N[C@@H](Cc1ccc(O)cc1)C(N)=O)[C@@H](C)O)C(C)C)[C@@H](C)O [Example 10, N-epsilon25-(2-{2-[2-(2-{2-[2-(19-carboxynonadecanoylamino)ethoxy]ethoxy}acetylamino)ethoxy]ethoxy}acetyl)-[Lys25]-pramlintide (1-37)] (H-KCNTATCATQRLANFLVHSSNNFGK([AEEA-AEEA-C20 diacid])ILPPTNVGSNTY-NH2; disulfide 2-7; N-terminus and C-terminus assumed)
